Source: patent publication US20150352134A1, “COMPOSITION FOR TOPICAL SKIN APPLICATION CONTAINING GINSENOSIDE F2 DERIVED FROM HYDROPONIC GINSENG” (AMOREPACIFIC CORPORATION, priority 2012, published 2015)

Columns and labels:
[1] = test system: mouse with vitiligo (C57b1/6-Mitf^mi-vit); assay: Grey hair prevention: melanin in newly grown hair of mouse with vitiligo; type: in vivo; settings: applied twice a day, about 3 weeks, 50 mM IBMX, 2.5% ginsenoside F2
Experimental: A mouse with vitiligo (C57b1/6-Mitf^mi-vit) is purchased from The Jackson Lab in U.S.A. The testing method on the grey hair inhibitory effect using a mouse with lots of grey hair is carried out as follows. A 12-week old mouse is subjected to depilation on the back side. The area of the depilated region is controlled to be the same to every object. From the next day of the depilation, the grey hair inhibitory substances are applied on the depilated region twice a day. The vehicle for the grey hair inhibitory substances is the mixture of EtOH, 1,3-BG and DW (3:2:5 in volume ratio). The liquid containing the vehicle alone is the negative control, the liquid containing the vehicle in combination with 50 mM IBMX is the positive control, and the liquid containing the vehicle in combination with 2.5% ginsenoside F2 is the test group. When the difference in the grey hair inhibitory effect between the substances is visually recognizable in about 3 weeks, the newly grown hair is collected to measure the quantity of melanin produced in the hair. The quantity of melanin in the hair is measured using esperase (Novozyme) strains that are a protein hydrolase. Esperase is dissolved in a buffer solution (50 mM tris-HCl, 5 mM DTT, pH 9.3) to a concentration of 1 NPU/ml to prepare a reaction buffer. 5 mg of mouse hair is put in 1 ml of the reaction buffer, which is stirred at a speed of 1,000 rpm at 37° C. for 13 hours to cause the reaction and then subjected to a momentary centrifugal isolation to separate the reactant solution from hair. The reactant solution thus obtained is placed in each well of a 96-well plate, and the absorbance at 405 nm is measured to determine the amount of melanin in the reactant solution. When a mouse with vitiligo and lots of grey hair is treated with the negative control substance, the positive control substance, or the test substance, the efficacies are visually observed, and the melanin in hair is quantitatively analyzed.

collagenase (MMP-1) = assay: Collagenase (MMP-1) expression in human fibroblasts (ELISA); type: cell-based; settings: 10 μg/mL for 24 hours; not treated control = 100
Experimental: The ginsenoside F2 of the present invention is measured in regards to the inhibitory effect on the generation of collagenase in comparison with retinoic acid. […] The human fibroblasts are treated with ginsenoside F2 or retinoic acid at a concentration of 10 μg/mL for 24 hours. Then, the cell culture medium is collected. The production yield of collagenase in the collected cell culture medium is measured using a collagenase measurement instrument commercially available (Catalog #. RPN 2610, USA Amersham Pharma Inc.). Firstly, the collected cell culture medium is put in each well of a 96-well plate uniformly coated with the primary collagenase antibodies and then subjected to antigen-antibody reactions in a thermostat container for 3 hours. After 3 hours, the secondary collagenase antibodies coupled to the chromophore groups are put in each well of the 96-well plate and then allowed to react for more 15 minutes. […] The intensity of yellowness in the reaction mixture is varied depending on the progress of the reaction. The absorbance of the yellow-colored 96-well plate is measured at 405 nm with a spectrophotometer, and the expression level of collagenase is calculated according to the following mathematical formula 2. In this regard, the absorbance of the cell culture medium collected from the group not treated with the composition of the present invention is considered as the absorbance of the control. [formula]

Human keratinocytes = assay: Promotion of keratinocyte differentiation (cornified envelope, absorbance 340 nm); type: cell-based; settings: ginsenoside 5 ppm, 5 days; low calcium negative control = 100
Experimental: The quantity of CE (Cornified Envelop) generated during differentiation of keratinocytes is measured in terms of absorbance in order to evaluate the ginsenoside F2 in regards to the effect of promoting differentiation of keratinocytes.
Human keratinocytes isolated from the epidermis of a newborn baby and subjected to a primary cultivation are immobilized in the bottom of a cultivation flask, treated with ginsenoside F2 applied to the culture medium to a concentration of 5 ppm, and cultured for 5 days until the keratinocytes grow to take up about 70 to 80% of the bottom area. In this regard, the negative control is the group treated with low calcium (0.03 mM), while the positive control is the group treated with high calcium (1.2 mM). Then, the cultured keratinocytes are harvested, washed with phosphate-buffered saline (PBS), treated with a 10 mM tris-HCl buffer solution (pH 7.4) containing 2% sodium dodecyl sulfate (SDS) and 20 mM dithiothreitol (DTT), and then subjected to sonication, boiling, and centrifugal isolation. The precipitation is suspended in 1 mL of PBS to measure the absorbance at 340 nm. Apart from this process, a part of the solution after sonication is collected and measured in regards to the protein content, which is determined as a reference in evaluating the degree of differentiation.

tyrosinase = assay: Tyrosinase expression in melanocytes (Western Blot); type: cell-based; settings: 501me1 cell line, IBMX 100 μM, ginsenoside 10 ppm
Experimental: 501me1 cell line is injected in each well of a 6-well microtiter plate at a rate of 500,000 cells/well. The cell line in each well is treated with 0.1% of DMSO as the negative control group, 100 μM of IBMX as the positive control group, or ginsenoside 10 ppm of F2 as the test group, and cultured at 37° C. for 24 hours, 48 hours, or 72 hours, to obtain proteins. The proteins thus obtained are subjected to Western Blot using MITF and tyrosinase antibodies. Protein extraction and Western Blot are performed using the standard methods known in the art.

B16/F10 melanoma cells = assay: Melanogenesis inhibition in B16/F10 melanoma cells; type: cell-based; settings: sample containing 0.001 wt. % of test substance; 3-day cultivation
Experimental: As a test substance, a sample containing 0.001 wt. % of ginsenoside F2 or kojic acid is added to a culture medium of B16/F10 melanoma cells (available from Korean Cell Line Bank) at a predetermined concentration. The culture medium is eliminated after 3-day cultivation. The cells are washed with PBS and dissolved in 1N NaOH. Then, the absorbance at 405 nm is measured. The control is the cells not treated with any test substance. In comparison with the melanin content in the control group, the inhibitory ability of each test substance against melanogenesis is measured. […] [formula]

Melanin-a cells = assay: Melanogenesis promotion in Melanin-a cells; type: cell-based; settings: 3 days, DMSO (0.1%) = 100
Experimental: Melanin-a cells are injected in a 24-well microtiter plate at a rate of 50,000 cells per well with an RPMI medium containing 5% fetal bovine serum, 100 IU penicillin G, and 0.2 μM TPA. Next day, the cells are treated with ginsenoside F2 as a test substance independently at the final concentration of 10 ppm or 50 ppm. The negative control is treated with 0.1% DMSO, and the positive control is treated with 100 μM IBMX. Then, the cells are cultured at 37° C. for 3 days. The wells of the plate are washed with PBS, and 100 μl of 1N NaOH is added to each well to dissolve melanin in the cells. The absorbance of the dissolved melanin is measured at 405 nm with a microplate reader. The effect of the ginsenoside F2 to promote melanogenesis is evaluated in comparison with that of the control groups.

SMILES | Amount of melanin (%) with respect to control [1] [%] | Collagenase expression level(%) (collagenase (MMP-1)) | Differentiation in keratinocytes (%) (Human keratinocytes) | Tyrosinase (Western Blot, in comparison with 100 of the negative control group) (tyrosinase; 24 hrs) | Tyrosinase (Western Blot, in comparison with 100 of the negative control group) (tyrosinase; 48 hrs) | Tyrosinase (Western Blot, in comparison with 100 of the negative control group) (tyrosinase; 72 hrs) | Melanogenesis inhibition rate (%) (B16/F10 melanoma cells) | Yield of Melanin (%) (Melanin-a cells; 10 ppm) | Yield of Melanin (%) (Melanin-a cells; 50 ppm)
CC(C)=CCC[C@](C)(O[C@@H]1O[C@H](CO[C@@H]2O[C@H](CO)[C@@H](O)[C@H](O)[C@H]2O)[C@@H](O)[C@H](O)[C@H]1O)[C@H]1CC[C@]2(C)[C@@H]1[C@H](O)C[C@@H]1[C@@]3(C)CC[C@H](O[C@@H]4O[C@H](CO)[C@@H](O)[C@H](O)[C@H]4O[C@@H]4O[C@H](CO)[C@@H](O)[C@H](O)[C@H]4O)C(C)(C)[C@@H]3CC[C@]12C [Ginsenoside Rb1] | 107.1 | 74 | 265 | 149 | 165 | 189 | 61 | 112 | 120
CC(C)=CCC[C@](C)(O[C@@H]1O[C@H](CO)[C@@H](O)[C@H](O)[C@H]1O)[C@H]1CC[C@]2(C)[C@@H]1[C@H](O)C[C@@H]1[C@@]3(C)CC[C@H](O[C@@H]4O[C@H](CO)[C@@H](O)[C@H](O)[C@H]4O)C(C)(C)[C@@H]3CC[C@]12C [Ginsenoside F2, ginsenoside F2] | 110.8 | 73 | 309 | 150 | 182 | 211 | 72 | 113 | 129
